Assay results as given in PubChem BioAssay AID1963433 (Molecular Pharmacology Branch, DTP, NCI, 2024).

Test system: 772245-204-R-J1-PDC complex spheroid growth
Experiment: Anticancer human tumor 772245-204-R-J1-PDC patient-derived rhabdomyosarcoma cell line growth inhibition [Asc]
Conditions: for IC50: curve of first compound; for viability, T/C: stronger effect = lower value
Summary of the method: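 Tumor cells were grown as multicellular spheroids with stromal HUVEC and mesenchymal stem cells and treated singly or in combination. Concentrations fell in half-log steps from the clinical Cmax, or from 10 microM where none was known.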
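Note: compound exposure lasted seven days.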
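Throughout, for viability, T/C: 100% = DMSO vehicle control viability.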

Compound `Cc1nc(N2CCC3(CC2)COC(C)C3N)c(CO)nc1Sc1ccnc(N)c1Cl` (stereo not given) + Cc1c(S(C)(=O)=O)c(-c2cc(F)cc(N3CCN(c4ccc(NS(=O)(=O)c5ccc(NC(CCN6CCC(C(=O)OCCCP(=O)(O)O)CC6)CSc6ccccc6)c(S(=O)(=O)C(F)(F)F)c5)cc4)CC3)c2)c(-c2ccc(Cl)cc2)n1C(C)C has an IC50 (second compound 0.1 µM) of 2230 nM, an IC50 (second compound 0.316 µM) of 644 nM and an IC50 (second compound 1 µM) of 369 nM. It also gave an IC50 (second compound 3.16 µM) of 86.2 nM, an IC50 (second compound 10 µM) of 444 nM and a viability, T/C (second compound 0.1 µM, first compound 0.00949 µM) of 90.3%. It also gave a viability, T/C (second compound 0.1 µM, first compound 0.03 µM) of 90.2%, a viability, T/C (second compound 0.1 µM, first compound 0.0949 µM) of 85% and a viability, T/C (second compound 0.1 µM, first compound 0.3 µM) of 71%. For the same compound, the viability, T/C (second compound 0.1 µM, first compound 0.949 µM) was 63.7%, the viability, T/C (second compound 0.1 µM, first compound 3 µM) was 45.4% and the viability, T/C (second compound 0.316 µM, first compound 0.00949 µM) was 72.6%. For the same compound, the viability, T/C (second compound 0.316 µM, first compound 0.03 µM) was 76.3%, the viability, T/C (second compound 0.316 µM, first compound 0.0949 µM) was 70.9% and the viability, T/C (second compound 0.316 µM, first compound 0.3 µM) was 57%. It also gave a viability, T/C (second compound 0.316 µM, first compound 0.949 µM) of 46.8%, a viability, T/C (second compound 0.316 µM, first compound 3 µM) of 31.2% and a viability, T/C (second compound 1 µM, first compound 0.00949 µM) of 47.4%. For the same compound, the viability, T/C (second compound 1 µM, first compound 0.03 µM) was 63.7%, the viability, T/C (second compound 1 µM, first compound 0.0949 µM) was 68.6% and the viability, T/C (second compound 1 µM, first compound 0.3 µM) was 47.9%. It also gave a viability, T/C (second compound 1 µM, first compound 0.949 µM) of 38.3%, a viability, T/C (second compound 1 µM, first compound 3 µM) of 20.3% and a viability, T/C (second compound 3.16 µM, first compound 0.00949 µM) of 60.9%. For the same compound, the viability, T/C (second compound 3.16 µM, first compound 0.03 µM) was 49.7%, the viability, T/C (second compound 3.16 µM, first compound 0.0949 µM) was 54.9% and the viability, T/C (second compound 3.16 µM, first compound 0.3 µM) was 37.9%. For the same compound, the viability, T/C (second compound 3.16 µM, first compound 0.949 µM) was 32.4%, the viability, T/C (second compound 3.16 µM, first compound 3 µM) was 14.5% and the viability, T/C (second compound 10 µM, first compound 0.00949 µM) was 52.1%. The viability, T/C (second compound 10 µM, first compound 0.03 µM) was 61.2%, the viability, T/C (second compound 10 µM, first compound 0.0949 µM) was 60.9% and the viability, T/C (second compound 10 µM, first compound 0.3 µM) was 55.4%. It also gave a viability, T/C (second compound 10 µM, first compound 0.949 µM) of 38.7% and a viability, T/C (second compound 10 µM, first compound 3 µM) of 16.4%.
